Test [1] deals with T1, Aryl hydrocarbon receptor (Mus musculus, UniProt P30561).
T1 sequence (P30561 whole entry): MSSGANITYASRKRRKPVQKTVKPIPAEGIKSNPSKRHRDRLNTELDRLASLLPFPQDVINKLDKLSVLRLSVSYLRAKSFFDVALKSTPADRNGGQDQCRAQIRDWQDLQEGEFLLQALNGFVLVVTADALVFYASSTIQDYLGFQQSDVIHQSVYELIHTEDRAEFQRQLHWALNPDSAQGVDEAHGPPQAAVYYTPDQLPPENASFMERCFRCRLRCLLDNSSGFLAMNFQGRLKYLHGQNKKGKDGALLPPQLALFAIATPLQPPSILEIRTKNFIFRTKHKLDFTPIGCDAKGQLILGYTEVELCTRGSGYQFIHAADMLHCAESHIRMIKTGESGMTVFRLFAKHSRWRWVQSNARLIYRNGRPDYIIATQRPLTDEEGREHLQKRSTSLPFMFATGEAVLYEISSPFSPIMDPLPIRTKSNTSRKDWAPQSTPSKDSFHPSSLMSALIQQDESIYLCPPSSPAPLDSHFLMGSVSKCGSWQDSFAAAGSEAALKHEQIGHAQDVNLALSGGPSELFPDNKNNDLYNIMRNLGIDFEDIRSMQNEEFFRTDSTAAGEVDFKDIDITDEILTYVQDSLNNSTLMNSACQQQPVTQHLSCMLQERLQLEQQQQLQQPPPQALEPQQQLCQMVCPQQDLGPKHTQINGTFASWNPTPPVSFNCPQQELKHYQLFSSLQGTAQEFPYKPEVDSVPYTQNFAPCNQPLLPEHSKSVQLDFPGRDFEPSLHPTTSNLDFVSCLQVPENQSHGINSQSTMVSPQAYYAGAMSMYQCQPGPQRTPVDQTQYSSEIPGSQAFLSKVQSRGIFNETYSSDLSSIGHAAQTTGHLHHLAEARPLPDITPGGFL
The test can be described thus: Displacement of [3H]TCDD from mouse AhR. For orientation: In a radioligand displacement assay an active substance lowers the binding of a labelled ligand.

In test [2] the target is T1, Aryl hydrocarbon receptor. The test can be described thus: Displacement of 2-azido-3-[125I]7,8-dibromodibenzo-pdioxin from C57BL/6J mouse liver AhR incubated for 20 mins by gamma counting based autoradiography.
The target in test [3] is T2, Aryl hydrocarbon receptor (Homo sapiens, UniProt P35869).
T2 sequence (P35869 whole entry): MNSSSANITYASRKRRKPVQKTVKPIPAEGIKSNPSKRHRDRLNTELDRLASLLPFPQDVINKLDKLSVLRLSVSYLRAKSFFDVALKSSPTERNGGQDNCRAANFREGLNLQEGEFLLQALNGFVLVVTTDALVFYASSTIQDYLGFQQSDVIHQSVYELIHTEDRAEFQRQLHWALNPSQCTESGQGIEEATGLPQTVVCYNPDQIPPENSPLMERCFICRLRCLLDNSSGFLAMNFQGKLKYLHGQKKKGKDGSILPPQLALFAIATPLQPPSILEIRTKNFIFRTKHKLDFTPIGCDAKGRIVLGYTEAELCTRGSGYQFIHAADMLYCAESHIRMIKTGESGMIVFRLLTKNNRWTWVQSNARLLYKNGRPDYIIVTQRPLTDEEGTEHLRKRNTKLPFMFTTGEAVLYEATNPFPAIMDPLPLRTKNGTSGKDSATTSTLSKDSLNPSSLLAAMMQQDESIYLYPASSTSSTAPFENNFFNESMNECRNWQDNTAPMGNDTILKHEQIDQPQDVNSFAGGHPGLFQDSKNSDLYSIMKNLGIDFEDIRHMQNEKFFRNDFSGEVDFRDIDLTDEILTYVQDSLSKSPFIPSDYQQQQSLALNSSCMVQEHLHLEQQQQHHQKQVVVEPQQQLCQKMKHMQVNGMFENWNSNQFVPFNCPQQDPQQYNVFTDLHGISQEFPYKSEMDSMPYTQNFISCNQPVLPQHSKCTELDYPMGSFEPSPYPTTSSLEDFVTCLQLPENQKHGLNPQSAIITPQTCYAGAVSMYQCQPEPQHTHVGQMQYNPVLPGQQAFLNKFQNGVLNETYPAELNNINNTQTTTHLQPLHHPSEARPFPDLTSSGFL
The test can be described thus: Displacement of [3H] 3-MC from AhR (unknown origin).

Test [4] has as its target T2, Aryl hydrocarbon receptor. Kind of test: Binding affinity to AhR (unknown origin) relative to TCDD.
Test [5] addresses T2, Aryl hydrocarbon receptor. The test can be described thus: Binding affinity to AhR (unknown origin).
The target of test [6] is T1, Aryl hydrocarbon receptor. The test can be described thus: Displacement of 2-azido-3-[125I]7,8-dibromodibenzo-pdioxin from C57BL/6J mouse liver AhR.
Test [7] deals with T1, Aryl hydrocarbon receptor. Kind of test: Displacement of 2-azido-3-[125I]7,8-dibromodibenzo-pdioxin from C57BL/6J mouse liver AhR relative to TCDD.
For test [8], the target named is T2, Aryl hydrocarbon receptor. The test can be described thus: Inhibition of AhR (unknown origin).

The structures appear in SMILES notation.

One may read the Kd as the concentration at which binding is half-saturated. `COC(=O)c1csc(C(=O)c2c[nH]c3ccccc23)n1`: binding in test [1] was characterised by a dissociation constant (Kd) of 3 nM.
Usually IC50 stands for the point on the concentration scale where inhibition reaches its midpoint. The compound `COc1ccc(-c2cc(=O)c3ccc4ccccc4c3o2)cc1OC` returned an IC50 in test [2] of 21 nM.
As to `O=c1c2cccc3cccc(c32)c2nc3ccc(Cl)cc3n12`, the IC50 in test [3] worked out at 2.6 nM.
As a reminder, the EC50 is the midpoint of the concentration-response curve. Lower therefore signals higher potency in that assay. In turn, `Cc1cc(Cl)cc2c1oc1cc(Cl)cc(Cl)c12` yielded an EC50 in test [4] of 49 nM. The same compound displayed a Kd in test [5] of 0.13 nM.
Regarding `O=c1cc(-c2ccccc2)oc2c1ccc1ccccc12` [ALPHA-NAPHTHOFLAVONE], the IC50 in test [2] was found to be 25 nM.
The compound `c1ccc2c(Cc3c[nH]c4ccccc34)c[nH]c2c1` [ARUNDINE] gave a Kd in test [6] of 90 nM. Further, in test [7], a half-maximal response (EC50) required 78000 nM.
Usually Ki stands for the dissociation constant of the complex between target and ligand, obtained from inhibition or displacement. Read a low Ki as tighter binding. Regarding `Nc1ccccc1C(=O)C[C@H](N)C(=O)O` [L-KYNURENINE], in test [8], the Ki is 21600 nM.

(Values after ChEMBL document CHEMBL4321850, “Targeting Aryl hydrocarbon receptor for next-generation immunotherapies: Selective modulators (SAhRMs) versus rapidly metabolized ligands (RMAhRLs)” (Eur J Med Chem, 2020).)
